The conditions of data set [1]: cited from earlier work.
The subject of data set [2] is B16 melanoma. Kind of data set: Biodistribution of LuT2BET in B16 melanoma-bearing mice (fluorescence of tissue extracts and plasma). In kind it is in vivo, C57 mice. The procedure:
The present example provides results from a study of the biodistribution of lutetium texaphyrin in melanoma-bearing mice. The biodistribution of LuT2BET was analyzed in C57 mice bearing B16 melanoma at 3 h, 5 h, and 24 h after an intravenous administration of 10 or 20 μmol/kg.
(§1) LuT2BET: The synthesis and chemical analysis of lutetium texaphyrin (LuT2BET, texaphyrin A2 of Tables A and B where M is lutetium) was provided in, for example, U.S. Pat. No. 5,622,946 and in PCT publication W095/10307. LuT2BET was dissolved in 5% mannitol at a 2 mM concentration. LuT2BET absorbs strongly in the far-red region of the electromagnetic spectrum, having a molar extinction coefficient of 23,000 M^-1 cm^-1 in this solution at 732 nm.
(§2) Melanoma Cells: B16F10 melanotic melanoma murine cells were obtained from the University of California, San Francisco Cell Culture Facility. These cells are highly pigmented and metastatic in vivo. Cells were grown in Iscove's Modified Dulbeccos' Medium (Gibco, Grand Island, N.Y.) supplemented with 10% fetal bovine serum (JRH Biosciences, Woodland, Calif.) and penicillin/streptomycin (Sigma, St. Louis, Mo.).
Animals and Tumor Model: Inbred C57BL/6N female mice, (C57 mice) seven to eight weeks of age, were obtained from Simonsen Laboratories Inc. (Gilroy, Calif.). […] Tumor size, i.e., length (l), width (w), and height (h), was measured 3 times a week with a vernier caliper. Tumor volumes were calculated using the formula for a hemiellipsoid (Rockwell and Kallman, 1972): […]
Tissue Extraction Procedure: LuT2BET was administered via tail-vein injection at 10 or 20 μmol/kg. Tissues and plasma were analyzed at 3, 5 or 24 h post administration of the photosensitizer. […] Plasma samples (125 μL) were mixed with 10 mM TRITON X-100® and analyzed for texaphyrin content by fluorescence. […] Samples were then analyzed for lutetium texaphyrin content by fluorescence (excitation=450 nm, emission=700-800 nm). […] Texaphyrin accumulation is expressed as μg drug/g tissue (wet weight) or per mL plasma.
Statistical analysis: Values are expressed as mean±SD. […]

Data set [3] in a line: Absorption of LuT2BET in 5% mannitol. In kind it is physicochemical. To be noted: 732 nm, 2 mM in 5% mannitol. The procedure:
as §1

The subject of data set [4] is B16F10 melanotic melanoma murine cells. Kind of data set: Confocal laser scanning (fluorescent) microscopy of lutetium texaphyrin in melanoma cells. In kind it is cell-based. To be noted: 20 μg/ml LuT2BET, 1 to 24 h. The procedure:
Fluorescent Microscopy of Texaphyrin in Melanoma Cells
The present example provides results from fluorescent microscopy studies using lutetium texaphyrin (LuT2BET) incorporated into melanoma cells.
B16F10 melanotic melanoma murine cells as described in Example 2 were incubated with 20 μg/ml LuT2BET for 1 to 24 h in Waymouth's medium supplemented with 15% fetal bovine serum. The adherent cells were washed thoroughly with PBS (3×) and examined using confocal laser scanning microscopy.
as §2

In data set [5] the test system is carcinoma SMT-F. The experiment in a line: Pharmacological data with radiolabeled [^14 C]-LuT2BET in SMT-F bearing mice. It is filed as in vivo. The following applies: 8.64 μmol/kg. The procedure: A dose of 8.64 μmol/kg LuT2BET produced drug uptake values of 5.1 μg/g, 4.7 μg/g, and 2.8 μg/g at 3 h, 5 h, and 24 h after injection, yielding tumor:muscle ratios of 8.45:1, 10:1 and 7:1, respectively.

Molecules are shown by their SMILES.

Take `CN1CCc2ccc(O)cc2C(c2ccccc2)C1` (stereo not shown) [BZZ, 2,3,4,5-tetrahydro-3-methyl-5-phenyl-1H-3-benzazepin-7-ol]: the tumor specificity result in data set [1] (compared with an ideal detecting agent) is recorded as “significantly less tumor-specific than an ideal detecting agent”. In addition, the “levels in normal brain (caudate)” value in data set [1] (in vivo) is given as “levels that may be toxic”.
For `CC(=O)[O-].CC(=O)[O-].CCc1c(CC)c2cc3nc(cnc4cc(OCCOCCOCCOC)c(OCCOCCOCCOC)cc4ncc4nc(cc1[n-]2)C(CCCO)=C4C)C(C)=C3CCCO.O.[Lu+3]` [LuT2BET], the “tumor:muscle ratio (x:1)” value in data set [2] (10 μmol/kg i.v., 5 h) is 15; in data set [5] (3 h) it was 8.45; in data set [5] (5 h), 10; in data set [5] (24 h) it was 7. The tumor localizing capacity result in data set [2] (mouse, in vivo) was “good tumor localizing capacity”. The “uptake into B16 melanoma compared to carcinoma SMT-F” value in data set [2] (mouse, in vivo) was “increased uptake”. Also, the molar extinction coefficient in data set [3] was 23,000 M^-1 cm^-1. For the same compound, the entries for the “localization at dendritic processes” value in data set [4] (listed as Lutetium texaphyrin) and in data set [4] (listed as lutetium texaphyrin) were “collect at the dendritic processes” and “collects at the dendritic processes”, respectively. Also, the localization in melanosomes result in data set [4] (listed as Lutetium texaphyrin) is “highly concentrated in the melanosomes of melanoma cells”; in data set [4] (listed as lutetium texaphyrin) it was “highly concentrated in the melanosomes of melanotic melanoma cells”. The entries for the “drug uptake (tumor)” value in data set [5] (3 h after injection), in data set [5] (5 h after injection) and in data set [5] (24 h after injection) were 5.1 µg/g, 4.7 µg/g and 2.8 µg/g, respectively.

The record behind these values is patent US6022526A, “Use of texaphyrins in detection of melanin and melanin metabolites diagnostic of melanotic melanoma” (Pharmacyclics, Inc., priority 1997, dated 2000).
